# Assay results: ChEMBL document CHEMBL1148021, “(Arylpiperazinyl)cyclohexylsufonamides: discovery of alpha(1a/1d)-selective adrenergic receptor antagonists for the treatment of Benign Prostatic Hyperplasia/Lower Urinary Tract Symptoms (BPH/LUTS)” (Bioorg Med Chem Lett, 2007)
# Columns and labels:
# [1] = biological target: D(2) dopamine receptor (Homo sapiens, UniProt P14416); experiment: Binding affinity to human dopamine D2 receptor
# [2] = biological target: T1, Alpha-1B adrenergic receptor (Homo sapiens, UniProt P35368); experiment: Binding affinity to human cloned adrenergic alpha-1B receptor
# T1 sequence (P35368 whole entry): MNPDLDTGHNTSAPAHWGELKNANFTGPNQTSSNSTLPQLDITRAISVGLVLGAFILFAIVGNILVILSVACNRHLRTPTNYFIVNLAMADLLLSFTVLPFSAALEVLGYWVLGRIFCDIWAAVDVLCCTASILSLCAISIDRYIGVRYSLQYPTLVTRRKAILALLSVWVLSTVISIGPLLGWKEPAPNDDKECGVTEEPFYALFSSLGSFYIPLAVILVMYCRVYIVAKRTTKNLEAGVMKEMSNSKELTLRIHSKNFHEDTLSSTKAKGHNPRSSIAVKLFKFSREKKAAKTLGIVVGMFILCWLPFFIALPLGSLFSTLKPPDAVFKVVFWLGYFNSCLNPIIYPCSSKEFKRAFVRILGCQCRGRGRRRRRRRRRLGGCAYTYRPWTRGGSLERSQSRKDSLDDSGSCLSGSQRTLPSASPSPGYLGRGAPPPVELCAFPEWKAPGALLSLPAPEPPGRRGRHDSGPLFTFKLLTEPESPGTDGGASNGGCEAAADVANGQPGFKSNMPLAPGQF
# [3] = biological target: T2, Alpha-1D adrenergic receptor (Homo sapiens, UniProt P25100); experiment: Binding affinity to human cloned adrenergic Alpha-1D receptor
# T2 sequence (P25100 whole entry): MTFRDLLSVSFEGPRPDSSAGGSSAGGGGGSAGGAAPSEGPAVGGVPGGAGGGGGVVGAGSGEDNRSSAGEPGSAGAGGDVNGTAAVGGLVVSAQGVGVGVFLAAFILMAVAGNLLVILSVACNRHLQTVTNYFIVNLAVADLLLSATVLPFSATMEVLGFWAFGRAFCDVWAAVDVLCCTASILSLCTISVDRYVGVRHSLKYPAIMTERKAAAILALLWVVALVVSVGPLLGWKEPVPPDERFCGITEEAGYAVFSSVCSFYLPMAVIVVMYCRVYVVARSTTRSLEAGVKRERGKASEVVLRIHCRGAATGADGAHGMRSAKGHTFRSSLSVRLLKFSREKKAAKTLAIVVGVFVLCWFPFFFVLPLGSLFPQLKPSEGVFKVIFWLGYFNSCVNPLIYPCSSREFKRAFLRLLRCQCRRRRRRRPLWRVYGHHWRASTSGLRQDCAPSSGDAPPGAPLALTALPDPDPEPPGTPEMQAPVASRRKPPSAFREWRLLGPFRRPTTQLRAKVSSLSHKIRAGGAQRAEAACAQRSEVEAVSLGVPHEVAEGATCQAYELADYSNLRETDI
# [4] = biological target: T3, Alpha-1A adrenergic receptor (Homo sapiens, UniProt P35348); experiment: Binding affinity to human cloned adrenergic alpha-1A receptor
# T3 sequence (P35348 whole entry): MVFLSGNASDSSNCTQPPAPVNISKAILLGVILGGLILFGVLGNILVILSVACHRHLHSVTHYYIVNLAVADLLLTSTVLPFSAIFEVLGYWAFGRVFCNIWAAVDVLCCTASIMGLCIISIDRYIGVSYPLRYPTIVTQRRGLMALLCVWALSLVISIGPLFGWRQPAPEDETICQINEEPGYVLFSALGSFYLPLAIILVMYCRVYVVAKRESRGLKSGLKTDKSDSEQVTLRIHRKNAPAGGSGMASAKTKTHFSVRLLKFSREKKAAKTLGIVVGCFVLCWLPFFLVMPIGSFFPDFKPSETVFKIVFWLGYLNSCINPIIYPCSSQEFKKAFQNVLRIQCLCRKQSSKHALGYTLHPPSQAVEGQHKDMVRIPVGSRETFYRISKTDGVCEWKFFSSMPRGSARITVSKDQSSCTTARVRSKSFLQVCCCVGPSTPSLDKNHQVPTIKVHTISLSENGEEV
# D(2) dopamine receptor, sequence (P14416 whole entry): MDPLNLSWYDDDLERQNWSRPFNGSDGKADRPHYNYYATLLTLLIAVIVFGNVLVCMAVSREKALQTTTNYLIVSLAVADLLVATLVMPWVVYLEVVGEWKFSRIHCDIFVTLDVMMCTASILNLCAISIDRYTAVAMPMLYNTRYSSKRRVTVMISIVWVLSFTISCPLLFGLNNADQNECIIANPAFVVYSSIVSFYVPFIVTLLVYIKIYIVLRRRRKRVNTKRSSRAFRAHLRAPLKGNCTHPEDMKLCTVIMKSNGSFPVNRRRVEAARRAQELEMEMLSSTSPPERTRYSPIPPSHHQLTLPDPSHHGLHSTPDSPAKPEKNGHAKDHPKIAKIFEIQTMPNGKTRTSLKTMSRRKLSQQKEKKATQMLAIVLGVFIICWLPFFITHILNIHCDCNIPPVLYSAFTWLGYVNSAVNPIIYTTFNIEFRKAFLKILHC
Compound,Ki [1] [µM],further results
CC(C)Oc1ccccc1N1CCN([C@H]2CC[C@@H](NS(=O)(=O)c3ccccc3[N+](=O)[O-])CC2)CC1,0.051,–
CC(C)Oc1ccccc1N1CCN([C@H]2CC[C@H](NS(=O)(=O)c3ccccc3[N+](=O)[O-])CC2)CC1,0.086,–
COc1ccncc1S(=O)(=O)N[C@H]1CC[C@@H](N2CCN(c3ccccc3OC(C)C)CC2)CC1,0.092,–
CC(C)Oc1ccccc1N1CCN([C@H]2CC[C@@H](NS(=O)(=O)c3cnc(Cl)c(Br)c3)CC2)CC1,0.061,–
CC(C)Oc1ccccc1N1CCN([C@H]2CC[C@@H](NS(=O)(=O)c3cccc(F)c3)CC2)CC1,0.074,–
CC(C)Oc1ccccc1N1CCN([C@H]2CC[C@H](NS(=O)(=O)c3cccc(F)c3)CC2)CC1,0.064,–
CC(C)Oc1ccccc1N1CCN([C@H]2CC[C@@H](NS(=O)(=O)c3cccc(Cl)c3F)CC2)CC1,0.198,Ki [2]: 0.12 µM; Ki [3]: 0.0062 µM
CC(C)Oc1ccccc1N1CCN([C@H]2CC[C@@H](NS(=O)(=O)c3ccc(Cl)cc3F)CC2)CC1,0.13,–
CC(C)Oc1ccccc1N1CCN([C@H]2CC[C@H](NS(=O)(=O)c3cccc(C(F)(F)F)c3)CC2)CC1,0.039,–
CC(C)Oc1ccccc1N1CCN([C@H]2CC[C@H](NS(=O)(=O)c3ccc(Cl)cc3F)CC2)CC1,0.042,–
CC(C)Oc1ccccc1N1CCN([C@H]2CC[C@@H](NS(=O)(=O)c3cccc(C(F)(F)F)c3)CC2)CC1,0.118,–
COc1ccc(C)cc1S(=O)(=O)N[C@H]1CC[C@H](N2CCN(c3ccccc3OC(C)C)CC2)CC1,0.05,–
CC(C)Oc1ccccc1N1CCN([C@H]2CC[C@H](NS(=O)(=O)c3cnc(Cl)c(Br)c3)CC2)CC1,0.08,–
COc1ccc(F)cc1S(=O)(=O)N[C@H]1CC[C@@H](N2CCN(c3ccccc3OC(C)C)CC2)CC1,0.173,–
COc1ccc(Br)cc1S(=O)(=O)N[C@H]1CC[C@@H](N2CCN(c3ccccc3OC(C)C)CC2)CC1,0.037,–
COc1ccc(OC)c(S(=O)(=O)N[C@H]2CC[C@H](N3CCN(c4ccccc4OC(C)C)CC3)CC2)c1,0.062,–
COc1ccc(C(F)(F)F)cc1S(=O)(=O)N[C@H]1CC[C@@H](N2CCN(c3ccccc3OC(C)C)CC2)CC1,0.194,–
COc1ccc(C(F)(F)F)cc1S(=O)(=O)N[C@H]1CC[C@H](N2CCN(c3ccccc3OC(C)C)CC2)CC1,0.0019,Ki [3]: 0.015 µM; Ki [4]: 0.025 µM
COc1ccc([N+](=O)[O-])cc1S(=O)(=O)N[C@H]1CC[C@H](N2CCN(c3ccccc3OC(C)C)CC2)CC1,0.018,–
Cc1ccc(S(=O)(=O)N[C@H]2CC[C@@H](N3CCN(c4ccccc4OC(C)C)CC3)CC2)cc1Cl,0.06,Ki [4]: 0.011 µM
COc1ccc(Cl)cc1S(=O)(=O)N[C@H]1CC[C@@H](N2CCN(c3ccccc3OCC3CC3)CC2)CC1,0.588,Ki [2]: 0.601 µM; Ki [3]: 0.048 µM; Ki [4]: 0.019 µM
O=S(=O)(N[C@H]1CC[C@@H](N2CCN(c3ccccc3OCC3CC3)CC2)CC1)c1cc(Cl)ccc1F,0.425,Ki [2]: 0.952 µM; Ki [3]: 0.044 µM; Ki [4]: 0.036 µM
COc1ccc(Cl)cc1S(=O)(=O)N[C@H]1CC[C@H](N2CCN(c3ccccc3OC(C)C)CC2)CC1,0.078,–
Cc1ccc(S(=O)(=O)N[C@H]2CC[C@H](N3CCN(c4ccccc4OC(C)C)CC3)CC2)cc1Cl,0.052,–
CC(C)Oc1ccccc1N1CCN([C@H]2CC[C@@H](NS(=O)(=O)Cc3ccccc3)CC2)CC1,0.024,–
CC(C)Oc1ccccc1N1CCN([C@H]2CC[C@H](NS(=O)(=O)Cc3ccccc3)CC2)CC1,0.071,–
CC(C)Oc1ccccc1N1CCN([C@H]2CC[C@H](NS(=O)(=O)c3ccccc3)CC2)CC1,0.034,–

Compound,Ki [1] [µM],further results
CC(C)Oc1ccccc1N1CCN([C@H]2CC[C@@H](NS(=O)(=O)c3ccccc3C#N)CC2)CC1,0.055,–
CC(C)Oc1ccccc1N1CCN([C@H]2CC[C@H](NS(=O)(=O)c3ccccc3C#N)CC2)CC1,0.0024,–
CC(C)Oc1ccccc1N1CCN([C@H]2CC[C@H](NS(=O)(=O)c3ccccc3F)CC2)CC1,0.031,–
CC(C)Oc1ccccc1N1CCN([C@H]2CC[C@@H](NS(=O)(=O)c3cccnc3)CC2)CC1,0.015,–
CC(C)Oc1ccccc1N1CCN([C@H]2CC[C@@H](NS(=O)(=O)c3ccc(F)cc3)CC2)CC1,0.069,–
CC(C)Oc1ccccc1N1CCN([C@H]2CC[C@@H](NS(=O)(=O)c3ccc(S(C)(=O)=O)cc3)CC2)CC1,0.122,–
CC(C)Oc1ccccc1N1CCN([C@H]2CC[C@H](NS(=O)(=O)c3ccc(S(C)(=O)=O)cc3)CC2)CC1,0.014,–
COc1ccc(S(=O)(=O)N[C@H]2CC[C@H](N3CCN(c4ccccc4OC(C)C)CC3)CC2)cc1OC,0.062,–
CC(C)Oc1ccccc1N1CCN([C@H]2CC[C@@H](NS(=O)(=O)c3ccc(OC(F)(F)F)cc3)CC2)CC1,0.43,Ki [4]: 0.017 µM
COc1ccc(OC)c(S(=O)(=O)N[C@H]2CC[C@@H](N3CCN(c4ccccc4OC(C)C)CC3)CC2)c1,0.081,Ki [2]: 0.153 µM; Ki [3]: 0.0051 µM
CC(C)Oc1ccccc1N1CCN([C@H]2CC[C@H](NS(=O)(=O)c3cccnc3)CC2)CC1,0.055,–
COc1ccncc1S(=O)(=O)N[C@H]1CC[C@H](N2CCN(c3ccccc3OC(C)C)CC2)CC1,0.043,–
CC(C)Oc1ccccc1N1CCN([C@H]2CC[C@@H](NS(=O)(=O)c3ccc(Cl)cc3Cl)CC2)CC1,0.042,–
CC(C)Oc1ccccc1N1CCN([C@H]2CC[C@@H](NS(=O)(=O)c3ccccc3)CC2)CC1,0.191,–
COc1ccc(F)cc1S(=O)(=O)N[C@H]1CC[C@H](N2CCN(c3ccccc3OC(C)C)CC2)CC1,0.139,–
CC(C)Oc1ccccc1N1CCN([C@H]2CC[C@H](NS(=O)(=O)c3ccc(OC(F)(F)F)cc3)CC2)CC1,0.058,–
CC(C)Oc1ccccc1N1CCN([C@H]2CC[C@H](NS(=O)(=O)c3ccc(Cl)cc3Cl)CC2)CC1,0.076,–
CC(C)Oc1ccccc1N1CCN([C@H]2CC[C@H](NS(=O)(=O)c3cccc(Cl)c3F)CC2)CC1,0.271,–
CC(C)Oc1ccccc1N1CCN([C@H]2CC[C@@H](NS(=O)(=O)c3ccccc3F)CC2)CC1,0.149,Ki [3]: 0.0024 µM
CC(C)Oc1ccccc1N1CCN([C@H]2CC[C@H](NS(=O)(=O)c3ccc(F)cc3)CC2)CC1,0.027,–
COc1ccc(Br)cc1S(=O)(=O)N[C@H]1CC[C@H](N2CCN(c3ccccc3OC(C)C)CC2)CC1,0.036,–
COc1ccc([N+](=O)[O-])cc1S(=O)(=O)N[C@H]1CC[C@@H](N2CCN(c3ccccc3OC(C)C)CC2)CC1,0.045,–
COc1ccc(Cl)cc1S(=O)(=O)N[C@H]1CC[C@@H](N2CCN(c3ccccc3OC(C)C)CC2)CC1 (stereo in doubt; form 1),0.101,Ki [4]: 0.001 µM
COc1ccc(S(=O)(=O)N[C@H]2CC[C@@H](N3CCN(c4ccccc4OC(C)C)CC3)CC2)cc1OC (stereo in doubt; form 1),0.094,–
COc1ccc(Cl)cc1S(=O)(=O)N[C@H]1CC[C@@H](N2CCN(c3ccccc3OC(C)C)CC2)CC1 (stereo in doubt; form 2),0.259,Ki [2]: 0.399 µM; Ki [4]: 0.011 µM
COc1ccc(S(=O)(=O)N[C@H]2CC[C@@H](N3CCN(c4ccccc4OC(C)C)CC3)CC2)cc1OC (stereo in doubt; form 2),0.81,Ki [2]: 0.112 µM; Ki [3]: 0.019 µM
CCOc1ccccc1OCCN[C@H](C)Cc1ccc(OC)c(S(N)(=O)=O)c1 [TAMSULOSIN],–,Ki [2]: 0.002 µM; Ki [3]: 0.0002 µM
